The target of one assay is T1, HDAC4 (Homo sapiens, UniProt P56524).
T1 construct: purchased BPS Bioscience
Put plainly: HDAC inhibition assay (Caliper EZ reader, FAM-labeled peptide substrate). The class given is biochemical. The note with it: recombinant human HDAC, 60 min at room temperature, 2 μM substrate. The protocol: (§1) All recombinant human HDACs were purchased from BPS Bioscience. The substrates, Broad Substrate A and Broad Substrate B (see International App. No. WO 2013/067391), were synthesized in-house. All other reagents were purchased from Sigma-Aldrich. […] Reactions were terminated by the addition of 1.5 μM of the known pan-HDAC inhibitor LBH-589 (panobinostat). […] The reactions were performed in duplicate for each sample.

The target in a further assay is T2, HDAC7 (Homo sapiens, UniProt Q8WUI4).
T2 construct: purchased BPS Bioscience
T2 sequence (Q8WUI4 1-952): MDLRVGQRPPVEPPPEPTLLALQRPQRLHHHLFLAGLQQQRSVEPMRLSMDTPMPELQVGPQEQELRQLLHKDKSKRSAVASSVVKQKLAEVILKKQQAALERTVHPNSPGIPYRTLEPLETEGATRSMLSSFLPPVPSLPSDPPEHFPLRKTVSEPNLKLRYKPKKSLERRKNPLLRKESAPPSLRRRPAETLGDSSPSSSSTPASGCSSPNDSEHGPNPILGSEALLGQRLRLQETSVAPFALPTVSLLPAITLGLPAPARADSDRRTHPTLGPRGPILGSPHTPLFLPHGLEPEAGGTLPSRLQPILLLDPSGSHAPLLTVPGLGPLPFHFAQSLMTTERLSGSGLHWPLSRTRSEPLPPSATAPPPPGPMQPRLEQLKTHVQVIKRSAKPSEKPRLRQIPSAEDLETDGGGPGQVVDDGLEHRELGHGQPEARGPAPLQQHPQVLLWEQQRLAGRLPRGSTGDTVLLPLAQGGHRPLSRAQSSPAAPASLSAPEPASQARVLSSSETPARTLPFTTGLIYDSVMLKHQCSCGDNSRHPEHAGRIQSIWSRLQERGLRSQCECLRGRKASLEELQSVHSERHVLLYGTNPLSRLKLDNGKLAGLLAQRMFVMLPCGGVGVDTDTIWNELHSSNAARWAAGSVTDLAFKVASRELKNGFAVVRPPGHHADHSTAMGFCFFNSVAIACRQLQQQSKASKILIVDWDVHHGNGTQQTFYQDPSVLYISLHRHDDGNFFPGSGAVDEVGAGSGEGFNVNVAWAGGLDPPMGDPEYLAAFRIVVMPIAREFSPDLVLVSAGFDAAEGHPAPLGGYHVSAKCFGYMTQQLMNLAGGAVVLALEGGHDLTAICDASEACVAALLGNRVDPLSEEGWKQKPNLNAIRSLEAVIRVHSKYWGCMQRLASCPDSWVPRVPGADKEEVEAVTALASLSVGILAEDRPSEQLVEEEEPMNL
The assay is described as above. The assay is classed as biochemical. The note with it: recombinant human HDAC, 60 min at room temperature, 2 μM substrate. The protocol:
as §1

The next assay deals with T3, HDAC9 (Homo sapiens, UniProt Q9UKV0).
T3 construct: purchased BPS Bioscience
T3 sequence (Q9UKV0 whole entry): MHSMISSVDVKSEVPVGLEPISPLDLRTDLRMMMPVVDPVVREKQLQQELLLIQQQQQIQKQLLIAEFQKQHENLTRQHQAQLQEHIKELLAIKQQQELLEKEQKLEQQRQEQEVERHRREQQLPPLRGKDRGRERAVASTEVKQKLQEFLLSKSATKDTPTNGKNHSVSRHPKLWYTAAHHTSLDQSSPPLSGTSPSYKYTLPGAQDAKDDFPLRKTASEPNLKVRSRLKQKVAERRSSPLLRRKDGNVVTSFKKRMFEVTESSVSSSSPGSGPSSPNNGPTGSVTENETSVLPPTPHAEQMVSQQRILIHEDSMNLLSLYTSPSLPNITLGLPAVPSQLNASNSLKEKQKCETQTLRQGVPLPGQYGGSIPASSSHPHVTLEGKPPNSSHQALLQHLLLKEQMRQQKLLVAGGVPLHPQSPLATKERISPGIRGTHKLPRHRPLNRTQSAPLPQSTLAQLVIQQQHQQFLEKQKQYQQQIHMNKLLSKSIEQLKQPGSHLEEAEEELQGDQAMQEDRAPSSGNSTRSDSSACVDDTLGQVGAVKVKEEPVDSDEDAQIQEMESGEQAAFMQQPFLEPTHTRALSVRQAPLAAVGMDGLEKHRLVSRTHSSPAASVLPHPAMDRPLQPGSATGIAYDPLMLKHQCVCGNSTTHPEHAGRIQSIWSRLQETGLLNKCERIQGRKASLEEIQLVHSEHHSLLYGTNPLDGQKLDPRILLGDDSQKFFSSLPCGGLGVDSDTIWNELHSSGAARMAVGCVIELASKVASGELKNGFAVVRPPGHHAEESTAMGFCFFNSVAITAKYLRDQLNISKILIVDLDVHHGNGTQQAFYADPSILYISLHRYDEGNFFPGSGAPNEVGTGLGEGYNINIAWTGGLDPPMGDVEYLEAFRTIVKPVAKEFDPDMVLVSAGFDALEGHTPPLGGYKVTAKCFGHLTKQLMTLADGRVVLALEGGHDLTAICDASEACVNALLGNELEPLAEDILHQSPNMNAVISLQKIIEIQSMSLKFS
The assay is described as above. The assay is classed as biochemical. To be noted: recombinant human HDAC, 60 min at room temperature, 2 μM substrate. The protocol: as §1

Another assay concerns the target T4, HDAC3 (Homo sapiens, UniProt O15379).
T4 construct: purchased BPS Bioscience
The description is as above. The note with it: recombinant human HDAC, 60 min at room temperature, 2 μM substrate. The assay is classed as biochemical. The protocol: as §1

In the next assay the target is T5, HDAC5 (Homo sapiens, UniProt Q9UQL6).
T5 construct: purchased BPS Bioscience
T5 sequence (Q9UQL6 whole entry): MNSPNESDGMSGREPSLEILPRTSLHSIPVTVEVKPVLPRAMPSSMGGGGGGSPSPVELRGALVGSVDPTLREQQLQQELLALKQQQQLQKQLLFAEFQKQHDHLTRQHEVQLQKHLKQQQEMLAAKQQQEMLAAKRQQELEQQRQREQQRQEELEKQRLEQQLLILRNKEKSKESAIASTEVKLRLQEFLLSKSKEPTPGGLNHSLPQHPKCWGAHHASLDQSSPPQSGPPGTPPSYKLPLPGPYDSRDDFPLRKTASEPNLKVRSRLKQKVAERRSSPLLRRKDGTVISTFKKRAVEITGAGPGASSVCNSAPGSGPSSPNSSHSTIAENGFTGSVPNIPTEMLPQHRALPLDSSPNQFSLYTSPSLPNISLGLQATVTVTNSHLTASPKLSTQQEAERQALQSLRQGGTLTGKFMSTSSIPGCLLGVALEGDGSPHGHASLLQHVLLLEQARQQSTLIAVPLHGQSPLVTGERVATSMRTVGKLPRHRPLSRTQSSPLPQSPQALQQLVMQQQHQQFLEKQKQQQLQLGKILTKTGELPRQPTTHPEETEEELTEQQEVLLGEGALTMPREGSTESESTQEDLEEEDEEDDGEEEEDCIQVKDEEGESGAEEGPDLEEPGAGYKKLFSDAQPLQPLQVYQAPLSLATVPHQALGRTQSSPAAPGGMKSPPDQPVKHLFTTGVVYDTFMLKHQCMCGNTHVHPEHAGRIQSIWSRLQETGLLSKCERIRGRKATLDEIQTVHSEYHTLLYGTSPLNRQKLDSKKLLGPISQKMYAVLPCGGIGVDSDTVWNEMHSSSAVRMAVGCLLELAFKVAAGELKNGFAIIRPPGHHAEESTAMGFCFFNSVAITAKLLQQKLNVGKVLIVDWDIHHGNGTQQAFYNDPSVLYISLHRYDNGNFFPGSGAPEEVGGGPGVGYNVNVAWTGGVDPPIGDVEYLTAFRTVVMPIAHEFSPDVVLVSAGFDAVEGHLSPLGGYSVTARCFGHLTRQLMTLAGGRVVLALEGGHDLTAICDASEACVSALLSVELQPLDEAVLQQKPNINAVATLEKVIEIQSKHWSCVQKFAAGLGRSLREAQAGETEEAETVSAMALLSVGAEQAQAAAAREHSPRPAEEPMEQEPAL
Described as above. To be noted: recombinant human HDAC, 60 min at room temperature, 2 μM substrate. The assay is classed as biochemical. As for the experimental part: as §1

A further assay deals with T6, HDAC2 (Homo sapiens, UniProt Q92769).
T6 construct: purchased BPS Bioscience
T6 sequence (Q92769 whole entry): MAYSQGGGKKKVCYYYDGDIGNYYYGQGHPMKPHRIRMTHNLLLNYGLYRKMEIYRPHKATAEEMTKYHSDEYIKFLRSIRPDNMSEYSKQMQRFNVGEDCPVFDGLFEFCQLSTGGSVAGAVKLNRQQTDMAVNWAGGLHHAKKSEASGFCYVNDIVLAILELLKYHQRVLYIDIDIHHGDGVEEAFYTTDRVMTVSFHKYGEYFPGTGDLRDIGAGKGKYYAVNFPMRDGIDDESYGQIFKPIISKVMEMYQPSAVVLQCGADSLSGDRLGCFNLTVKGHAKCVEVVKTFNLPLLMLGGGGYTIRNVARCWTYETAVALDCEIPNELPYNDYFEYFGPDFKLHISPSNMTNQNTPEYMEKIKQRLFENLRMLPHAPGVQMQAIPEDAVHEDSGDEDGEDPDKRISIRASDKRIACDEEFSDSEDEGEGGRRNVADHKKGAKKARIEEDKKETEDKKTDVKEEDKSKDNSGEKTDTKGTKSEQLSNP
Described as above. The class given is biochemical. To be noted: recombinant human HDAC, 60 min at room temperature, 2 μM substrate. The protocol:
as §1

Another assay concerns the target T7, HDAC6 (Homo sapiens, UniProt Q9UBN7).
T7 construct: purchased BPS Bioscience
T7 sequence (Q9UBN7 1-1215): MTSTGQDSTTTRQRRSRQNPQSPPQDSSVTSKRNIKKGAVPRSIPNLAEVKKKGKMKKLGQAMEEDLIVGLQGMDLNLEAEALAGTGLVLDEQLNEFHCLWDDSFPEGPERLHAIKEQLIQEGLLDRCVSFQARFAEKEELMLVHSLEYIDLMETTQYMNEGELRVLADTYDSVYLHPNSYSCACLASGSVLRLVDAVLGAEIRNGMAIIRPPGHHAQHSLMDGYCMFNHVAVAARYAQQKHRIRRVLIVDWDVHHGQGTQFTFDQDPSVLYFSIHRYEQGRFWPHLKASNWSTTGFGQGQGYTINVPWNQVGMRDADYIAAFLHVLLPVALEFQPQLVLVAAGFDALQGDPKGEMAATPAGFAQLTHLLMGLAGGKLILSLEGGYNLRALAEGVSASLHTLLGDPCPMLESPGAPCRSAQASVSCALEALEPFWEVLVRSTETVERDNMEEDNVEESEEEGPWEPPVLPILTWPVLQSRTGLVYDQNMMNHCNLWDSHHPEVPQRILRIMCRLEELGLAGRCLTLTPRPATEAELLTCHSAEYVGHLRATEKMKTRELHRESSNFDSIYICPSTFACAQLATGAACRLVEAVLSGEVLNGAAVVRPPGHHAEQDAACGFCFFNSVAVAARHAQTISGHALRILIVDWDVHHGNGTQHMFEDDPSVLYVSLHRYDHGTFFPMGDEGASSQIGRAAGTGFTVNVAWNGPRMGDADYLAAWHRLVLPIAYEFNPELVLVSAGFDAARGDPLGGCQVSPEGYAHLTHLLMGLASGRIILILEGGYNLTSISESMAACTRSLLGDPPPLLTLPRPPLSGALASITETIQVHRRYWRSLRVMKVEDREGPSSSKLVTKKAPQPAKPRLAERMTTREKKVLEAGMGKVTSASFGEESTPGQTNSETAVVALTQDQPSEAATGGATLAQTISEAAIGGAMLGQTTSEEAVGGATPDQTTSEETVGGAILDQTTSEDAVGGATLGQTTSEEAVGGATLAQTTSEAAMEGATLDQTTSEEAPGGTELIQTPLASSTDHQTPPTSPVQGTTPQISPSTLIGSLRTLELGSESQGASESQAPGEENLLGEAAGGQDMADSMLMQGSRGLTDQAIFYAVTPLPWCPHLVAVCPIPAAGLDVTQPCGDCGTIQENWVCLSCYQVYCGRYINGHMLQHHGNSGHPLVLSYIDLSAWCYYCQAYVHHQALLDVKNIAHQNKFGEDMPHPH
Described as above. The class given is biochemical. To be noted: recombinant human HDAC, 60 min at room temperature, 2 μM substrate. As for the experimental part:
as §1

For another assay, the target named is T8, HDAC8 (Homo sapiens, UniProt Q9BY41).
T8 construct: purchased BPS Bioscience
T8 sequence (Q9BY41 1-377): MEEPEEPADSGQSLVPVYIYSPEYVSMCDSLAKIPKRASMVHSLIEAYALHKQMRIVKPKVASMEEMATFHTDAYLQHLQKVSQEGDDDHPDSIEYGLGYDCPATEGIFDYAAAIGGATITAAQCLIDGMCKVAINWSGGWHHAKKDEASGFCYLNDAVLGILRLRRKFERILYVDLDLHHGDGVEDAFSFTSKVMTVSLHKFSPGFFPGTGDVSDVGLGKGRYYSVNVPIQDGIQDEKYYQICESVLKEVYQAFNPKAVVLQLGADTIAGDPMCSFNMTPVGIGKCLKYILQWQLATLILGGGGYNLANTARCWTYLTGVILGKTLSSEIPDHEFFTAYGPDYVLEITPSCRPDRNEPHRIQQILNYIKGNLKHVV
Described as above. The assay is classed as biochemical. The note with it: recombinant human HDAC, 60 min at room temperature, 2 μM substrate. As for the experimental part: as §1

In the next assay the target is T9, HDAC1 (Homo sapiens, UniProt Q13547).
T9 construct: purchased BPS Bioscience
T9 sequence (Q13547 whole entry): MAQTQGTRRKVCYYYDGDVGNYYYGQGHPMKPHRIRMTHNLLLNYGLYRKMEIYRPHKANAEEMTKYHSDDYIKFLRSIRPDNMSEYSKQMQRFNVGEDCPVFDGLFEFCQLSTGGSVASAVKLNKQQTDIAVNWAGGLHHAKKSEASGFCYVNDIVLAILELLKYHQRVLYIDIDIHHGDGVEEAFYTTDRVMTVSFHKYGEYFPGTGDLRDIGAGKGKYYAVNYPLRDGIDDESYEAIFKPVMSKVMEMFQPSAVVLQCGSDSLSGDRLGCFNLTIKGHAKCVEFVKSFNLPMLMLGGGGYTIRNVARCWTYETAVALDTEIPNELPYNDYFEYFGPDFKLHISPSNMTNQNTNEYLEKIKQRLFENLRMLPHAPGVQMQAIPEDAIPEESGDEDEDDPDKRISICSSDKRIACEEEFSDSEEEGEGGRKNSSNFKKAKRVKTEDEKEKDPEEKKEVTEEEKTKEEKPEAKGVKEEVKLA
Described as above. The note with it: recombinant human HDAC, 60 min at room temperature, 2 μM substrate. The class given is biochemical. As for the experimental part: as §1

The test system of another assay is HDAC. Put plainly: In vivo PET imaging: blocking of whole brain uptake of the radiolabeled compound of Example 3. Also noted: species or system rat. To be noted: self-blocking, 5 min pretreatment with 1.0 μg-2.0 mg/kg unlabeled compound; radiotracer of Example 3. The protocol: Male Sprague-Dawley rats were utilized in pairs, anesthetized with inhalational isoflurane (Forane) at 3% in a carrier of 1.5-2 L/min medical oxygen and maintained at 2% isoflurane for the duration of the scan. The rats were arranged head-to-head in a Triumph Trimodality PET/CT/SPECT scanner (Gamma Medica, Northridge, Calif.). Rats were injected standard references or vehicle via a lateral tail vein catheterization at the start of Positron Emission Tomography (PET) acquisition. Dynamic PET acquisition lasted for 60 min and was followed by computed tomography (CT) for anatomic co-registration. PET data were reconstructed using a 3D-MLEM method resulting in a full width at half-maximum resolution of 1 mm. Reconstructed images were exported from the scanner in DICOM format along with an anatomic CT for rodent studies. These files were imported to PMOD (PMOD Technologies, Ltd.) and manually coregistered using six degrees of freedom.
Volumes of interest (VOIs) were drawn manually as spheres in brain regions guided by high resolution CT structural images and summed PET data, with a radius no less than 1 mm to minimize partial volume effects. Time-activity curves (TACs) were exported in terms of decay corrected activity per unit volume at specified time points with gradually increasing intervals. The TACs were expressed as percent injected dose per unit volume for analysis.
Summed PET images following injection with the ^11C radiolabeled (E)-3-(4-((((1r,3R,5S)-adamantan-1-ylmethyl)(methyl)amino)methyl)phenyl)-N-hydroxyacrylamide (Example 3) at baseline or after 5 minutes pretreatment with 0.5 or 2.0 mg/kg unlabeled (E)-3-(4-((((1 r,3R,5 S)-adamantan-1-ylmethyl) (methyl)amino)methyl)phenyl)-N-hydroxyacrylamide illustrate brain uptake and self-blocking, as shown in FIG. 1A. Whole-brain tracer uptake levels, normalized to uptake at 10 min, were altered by 10-40% in self-blocking experiments with 5 min pretreatment with 1.0 μg-2.0 mg/kg unlabeled (E)-3-(4-((((1r,3R,5S)-adamantan-1-ylmethyl) (methyl)amino)methyl)phenyl)-N-hydroxyacrylamide, as shown in FIGS. 1B and 1C. This quantification provides a means to measure occupancy of HDAC targets on the basis of blocked binding of the radiolabeled compound of Example 3.
Whole brain uptake of the radiotracer of Example 3 was measured 4 h after acute systemic treatment.

A value given as a limit tells only on which side of the number the result lay.

T4 sequence (O15379 whole entry): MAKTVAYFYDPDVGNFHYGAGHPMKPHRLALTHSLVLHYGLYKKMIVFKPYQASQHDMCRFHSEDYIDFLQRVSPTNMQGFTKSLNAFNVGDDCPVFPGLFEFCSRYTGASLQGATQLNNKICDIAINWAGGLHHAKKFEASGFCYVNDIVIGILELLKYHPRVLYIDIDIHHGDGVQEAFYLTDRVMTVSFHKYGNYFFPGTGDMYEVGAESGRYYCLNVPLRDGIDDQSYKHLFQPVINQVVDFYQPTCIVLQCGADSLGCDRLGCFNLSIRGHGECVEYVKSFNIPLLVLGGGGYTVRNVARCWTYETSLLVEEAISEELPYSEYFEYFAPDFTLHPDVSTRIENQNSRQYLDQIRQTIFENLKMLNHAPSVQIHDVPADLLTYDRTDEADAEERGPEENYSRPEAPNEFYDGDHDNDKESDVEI
T4 sequence (Q9Y618 395-489 partner limits assumed): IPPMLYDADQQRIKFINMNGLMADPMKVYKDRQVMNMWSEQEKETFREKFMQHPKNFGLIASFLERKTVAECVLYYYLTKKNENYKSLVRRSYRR
T1 sequence (P56524 whole entry): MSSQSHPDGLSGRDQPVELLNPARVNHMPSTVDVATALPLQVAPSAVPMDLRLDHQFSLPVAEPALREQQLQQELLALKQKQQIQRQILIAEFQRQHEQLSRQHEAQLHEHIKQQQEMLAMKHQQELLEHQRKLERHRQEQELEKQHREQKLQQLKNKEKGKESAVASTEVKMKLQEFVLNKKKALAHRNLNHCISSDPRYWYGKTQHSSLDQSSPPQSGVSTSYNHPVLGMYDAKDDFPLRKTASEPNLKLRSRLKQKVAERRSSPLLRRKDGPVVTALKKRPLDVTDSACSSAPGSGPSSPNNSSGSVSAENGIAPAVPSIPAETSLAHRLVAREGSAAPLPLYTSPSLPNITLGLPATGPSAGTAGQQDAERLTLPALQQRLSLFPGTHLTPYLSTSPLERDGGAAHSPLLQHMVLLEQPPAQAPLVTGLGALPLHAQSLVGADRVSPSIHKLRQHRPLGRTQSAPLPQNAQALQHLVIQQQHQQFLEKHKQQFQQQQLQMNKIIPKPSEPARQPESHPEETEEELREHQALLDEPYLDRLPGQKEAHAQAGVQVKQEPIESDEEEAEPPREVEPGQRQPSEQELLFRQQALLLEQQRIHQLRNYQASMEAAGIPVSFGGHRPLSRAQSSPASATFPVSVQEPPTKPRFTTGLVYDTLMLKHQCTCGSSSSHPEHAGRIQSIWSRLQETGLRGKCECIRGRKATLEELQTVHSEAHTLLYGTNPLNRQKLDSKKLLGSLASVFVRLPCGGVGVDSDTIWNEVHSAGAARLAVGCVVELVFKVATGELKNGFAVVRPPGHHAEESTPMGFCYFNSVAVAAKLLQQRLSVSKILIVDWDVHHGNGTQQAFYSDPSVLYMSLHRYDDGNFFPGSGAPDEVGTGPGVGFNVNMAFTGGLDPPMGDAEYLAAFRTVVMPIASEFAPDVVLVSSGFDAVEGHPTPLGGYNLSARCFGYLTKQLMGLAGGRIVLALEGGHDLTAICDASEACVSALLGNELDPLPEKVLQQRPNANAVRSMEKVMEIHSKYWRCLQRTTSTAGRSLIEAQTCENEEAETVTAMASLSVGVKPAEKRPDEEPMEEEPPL

Regarding `O=C(/C=C/c1ccc(CN(CCF)CC23CC4CC(CC(C4)C2)C3)cc1)NO`, the IC50 at HDAC4 was above 12000 nM; on HDAC7, above 30000 nM; at HDAC9 it was above 30000 nM; at HDAC3 it was 470 nM; on HDAC5, above 5000 nM; on HDAC2, 651 nM. In addition, the figures for the half-maximal inhibitory concentration (IC50) on HDAC6, at HDAC8 and on HDAC1 were 308 nM, above 30000 nM and 222 nM, respectively.

`CN(Cc1ccc(/C=C/C(=O)Nc2ccccc2N)cc1)CC12CC3CC(CC(C3)C1)C2` [drawing 61]: the half-maximal inhibitory concentration (IC50) at HDAC7 is above 40000 nM; at HDAC3, 216 nM; on HDAC5, above 40000 nM; at HDAC2, 602 nM; at HDAC6 it was above 10000 nM; at HDAC8, above 40000 nM. For the same compound, the concentration for half-maximal inhibition (IC50) at HDAC1 stood at 149 nM.

Turning to `CN(Cc1ccc(/C=C/C(=O)NO)cc1)CC12CC3CC(CC(C3)C1)C2` [Example 1, (E)-3-(4-((((1r,3R,5S)-adamantan-1-ylmethyl)(methyl)amino)methyl)phenyl)-N-hydroxyacrylamide], the “Whole-brain tracer uptake levels, normalized to uptake at 10 min, altered by” value with HDAC is recorded as 10-40%.

Consider `O=C(/C=C/c1ccc(CNCC23CC4CC(CC(C4)C2)C3)c(F)c1)NO`, for which the half-inhibitory concentration (IC50) on HDAC4 was above 70000 nM; at HDAC7, above 70000 nM; at HDAC9 it was above 50000 nM; on HDAC3, 0.5 nM; at HDAC5, 4310 nM; at HDAC2, 6.4 nM. For the same compound, the values for the IC50 on HDAC6, at HDAC8 and on HDAC1 were above 40000 nM, above 5000 nM and 0.8 nM, respectively.
